Results from PubChem BioAssay AID248 (DTP/NCI, 2004).
“And” between values parts separate entries of the source, which are not always exact repeats. Identical values can stand only once. Inconclusive results and toxic doses are left out. No stated cut-off is given here; in the data, active means T/C of 150% or more; inactive means T/C below 125%.

Test system: L1210 leukemia ip in BDF1 mice, survival T/C
Experiment: NCI In Vivo Anticancer Drug Screen. Data for tumor model L1210 Leukemia (intraperitoneal) in B6D2F1 (BDF1) mice
Conditions: higher = longer survival
Procedure, shortened: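 Value reflects the ratio of survival in compound-treated mice to survival in vehicle-treated controls, with both groups carrying the same transplanted tumor.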

[1] = endpoint: mean survival time, dose: 50.0 mg/kg/injection, schedule: Q01DX001 (ip), vehicle: saline
[2] = endpoint: mean survival time, dose: 100.0 mg/kg/injection, schedule: Q01DX001 (ip), vehicle: saline
[3] = endpoint: mean survival time, dose: 200.0 mg/kg/injection, schedule: Q01DX001 (ip), vehicle: saline
[4] = endpoint: mean survival time, dose: 400.0 mg/kg/injection, schedule: Q01DX001 (ip), vehicle: saline
[5] = endpoint: mean survival time, dose: 50.0 mg/kg/injection, schedule: Q01DX009 (ip), vehicle: saline
[6] = endpoint: mean survival time, dose: 100.0 mg/kg/injection, schedule: Q01DX009 (ip), vehicle: Klucel (hydroxypropylcellulose) (HPC)
[7] = endpoint: mean survival time, dose: 100.0 mg/kg/injection, schedule: Q04DX003 (ip), vehicle: Klucel (hydroxypropylcellulose) (HPC)
[8] = endpoint: mean survival time, dose: 200.0 mg/kg/injection, schedule: Q01DX009 (ip), vehicle: Klucel (hydroxypropylcellulose) (HPC)
[9] = endpoint: mean survival time, dose: 200.0 mg/kg/injection, schedule: Q04DX003 (ip), vehicle: Klucel (hydroxypropylcellulose) (HPC)
[10] = endpoint: mean survival time, dose: 400.0 mg/kg/injection, schedule: Q01DX009 (ip), vehicle: Klucel (hydroxypropylcellulose) (HPC)
[11] = endpoint: mean survival time, dose: 400.0 mg/kg/injection, schedule: Q04DX003 (ip), vehicle: Klucel (hydroxypropylcellulose) (HPC)
[12] = endpoint: mean survival time, dose: 100.0 mg/kg/injection, schedule: Q01DX009 (ip), vehicle: saline
[13] = endpoint: mean survival time, dose: 200.0 mg/kg/injection, schedule: Q01DX009 (ip), vehicle: saline
[14] = endpoint: mean survival time, dose: 400.0 mg/kg/injection, schedule: Q01DX009 (ip), vehicle: saline

Measured: T/C

CC(C)(CC(=O)O)CC(=O)OCC(=O)[C@@]1(O)CC[C@H]2[C@@H]3CCC4=CC(=O)C=C[C@]4(C)[C@H]3[C@@H](O)C[C@@]21C
inactive: endpoint: mean survival time, dose: 20.0 mg/kg/injection, schedule: Q01DX009 (ip), vehicle: steriod suspending solution 103 % of control | endpoint: mean survival time, dose: 40.0 mg/kg/injection, schedule: Q01DX009 (ip), vehicle: steriod suspending solution 103 % of control | endpoint: mean survival time, dose: 50.0 mg/kg/injection, schedule: Q01DX001 (sc), vehicle: steriod suspending solution 102 % of control | endpoint: mean survival time, dose: 80.0 mg/kg/injection, schedule: Q01DX009 (ip), vehicle: steriod suspending solution 111 % of control | endpoint: mean survival time, dose: 100.0 mg/kg/injection, schedule: Q01DX001 (sc), vehicle: steriod suspending solution 100 % of control | endpoint: mean survival time, dose: 100.0 mg/kg/injection, schedule: Q01DX009 (sc), vehicle: steriod suspending solution 93 % of control | endpoint: mean survival time, dose: 100.0 mg/kg/injection, schedule: Q04DX003 (sc), vehicle: steriod suspending solution 98 % of control | endpoint: mean survival time, dose: 200.0 mg/kg/injection, schedule: Q01DX001 (sc), vehicle: steriod suspending solution 113 % of control | endpoint: mean survival time, dose: 200.0 mg/kg/injection, schedule: Q01DX009 (sc), vehicle: steriod suspending solution 104 % of control and 118 % of control | endpoint: mean survival time, dose: 200.0 mg/kg/injection, schedule: Q04DX003 (sc), vehicle: steriod suspending solution 110 % of control | endpoint: mean survival time, dose: 400.0 mg/kg/injection, schedule: Q01DX001 (sc), vehicle: steriod suspending solution 107 % of control | endpoint: mean survival time, dose: 400.0 mg/kg/injection, schedule: Q01DX009 (sc), vehicle: steriod suspending solution 102 % of control and 124 % of control | endpoint: mean survival time, dose: 400.0 mg/kg/injection, schedule: Q04DX003 (sc), vehicle: steriod suspending solution 104 % of control

COc1ccc(CN2CCCN(Cc3ccc(OC)cc3OC)C2c2cc(Br)ccc2O)c(OC)c1
inactive: [1] 97 % of control | [2] 90 % of control | [3] 92 % of control | [4] 92 % of control

CCCCC(OC(C)=O)C(OC(C)=O)C(COC(C)=O)NC(C)=O (stereo unspecified)
inactive: endpoint: mean survival time, dose: 100.0 mg/kg/injection, schedule: Q04DX002 (ip), vehicle: other 103 % of control | endpoint: mean survival time, dose: 200.0 mg/kg/injection, schedule: Q04DX002 (ip), vehicle: other 97 % of control | endpoint: mean survival time, dose: 400.0 mg/kg/injection, schedule: Q04DX002 (ip), vehicle: other 110 % of control

COC(=O)CCN(c1cccc(Cl)c1)S(=O)(=O)c1ccc(C)cc1
inactive: [2] 98 % of control | [3] 92 % of control | [4] 98 % of control

NC(=O)NOC(=O)c1ccccc1
inactive: endpoint: mean survival time, dose: 50.0 mg/kg/injection, schedule: Q01DX Z (ip), vehicle: other 103 % of control | endpoint: mean survival time, dose: 100.0 mg/kg/injection, schedule: Q01DX Z (ip), vehicle: other 103 % of control | endpoint: mean survival time, dose: 450.0 mg/kg/injection, schedule: Q01DX Z (ip), vehicle: other 111 % of control | endpoint: mean survival time, dose: 600.0 mg/kg/injection, schedule: Q01DX Z (ip), vehicle: other 112 % of control

CCN(CC)Cc1ccccc1COC(=O)c1ccc(C)cc1
inactive: endpoint: mean survival time, dose: 25.0 mg/kg/injection, schedule: Q04DX002 (ip), vehicle: Klucel (hydroxypropylcellulose) (HPC) 97 % of control | endpoint: mean survival time, dose: 50.0 mg/kg/injection, schedule: Q04DX002 (ip), vehicle: Klucel (hydroxypropylcellulose) (HPC) 97 % of control | endpoint: mean survival time, dose: 100.0 mg/kg/injection, schedule: Q04DX002 (ip), vehicle: Klucel (hydroxypropylcellulose) (HPC) 94 % of control

Cc1ccc(S(=O)(=O)/C=C\S(=O)(=O)c2ccc(C)cc2)cc1
inactive: endpoint: mean survival time, dose: 12.5 mg/kg/injection, schedule: Q01DX009 (ip), vehicle: saline 98 % of control | endpoint: mean survival time, dose: 25.0 mg/kg/injection, schedule: Q01DX009 (ip), vehicle: saline 105 % of control | endpoint: mean survival time, dose: 25.0 mg/kg/injection, schedule: Q04DX003 (ip), vehicle: acetone 92 % of control | [5] 86 % of control | endpoint: mean survival time, dose: 50.0 mg/kg/injection, schedule: Q04DX003 (ip), vehicle: acetone 100 % of control | endpoint: mean survival time, dose: 100.0 mg/kg/injection, schedule: Q01DX001 (ip), vehicle: acetone 90 % of control

O=C(Nc1cccc(Cl)c1)OCC(Cl)(Cl)Cl
inactive: [6] 88 % of control | [7] 98 % of control | [8] 95 % of control | [9] 104 % of control | [10] 92 % of control | [11] 100 % of control

NN(c1ccccc1)c1ccc2ccccc2c1
inactive: endpoint: mean survival time, dose: 50.0 mg/kg/injection, schedule: Q01DX009 (ip), vehicle: Klucel (hydroxypropylcellulose) (HPC) 115 % of control | [6] 100 % of control | [7] 93 % of control | [8] 103 % of control | [9] 93 % of control | [11] 86 % of control

CCCCNC(=O)n1ncc2cc(Cl)ccc21
inactive: [2] 103 % of control | [3] 100 % of control | [4] 94 % of control

CC(C)c1cc(C(C)C)c(S(=O)(=O)/C=C/c2ccccc2)c(C(C)C)c1
inactive: [2] 104 % of control | [12] 91 % of control | endpoint: mean survival time, dose: 100.0 mg/kg/injection, schedule: Q04DX003 (ip), vehicle: acetone 100 % of control | [3] 97 % of control | [13] 93 % of control | endpoint: mean survival time, dose: 200.0 mg/kg/injection, schedule: Q04DX003 (ip), vehicle: acetone 97 % of control | [4] 92 % of control | [14] 89 % of control | endpoint: mean survival time, dose: 400.0 mg/kg/injection, schedule: Q04DX003 (ip), vehicle: acetone 105 % of control

Cc1cc(N(CCCl)CCCl)ccc1N=Nc1ccccc1
inactive: endpoint: median survival time, dose: 100.0 mg/kg/injection, schedule: Q01DX009 (ip), vehicle: Klucel (hydroxypropylcellulose) (HPC) 98 % of control | endpoint: median survival time, dose: 200.0 mg/kg/injection, schedule: Q01DX009 (ip), vehicle: Klucel (hydroxypropylcellulose) (HPC) 97 % of control | endpoint: median survival time, dose: 400.0 mg/kg/injection, schedule: Q01DX009 (ip), vehicle: Klucel (hydroxypropylcellulose) (HPC) 93 % of control

CC(C)CC([NH-])C(=O)O.CC(C)CC([NH-])C(=O)O.CC(C)CC([NH-])C(=O)O.[Co+3] (stereo unspecified)
inactive: endpoint: mean survival time, dose: 12.5 mg/kg/injection, schedule: Q01DX009 (ip), vehicle: water 106 % of control | endpoint: mean survival time, dose: 25.0 mg/kg/injection, schedule: Q01DX009 (ip), vehicle: water 95 % of control | endpoint: mean survival time, dose: 50.0 mg/kg/injection, schedule: Q01DX009 (ip), vehicle: water 98 % of control and 104 % of control | endpoint: mean survival time, dose: 100.0 mg/kg/injection, schedule: Q01DX009 (ip), vehicle: water 117 % of control | endpoint: mean survival time, dose: 100.0 mg/kg/injection, schedule: Q04DX003 (ip), vehicle: water 107 % of control and 98 % of control | endpoint: mean survival time, dose: 200.0 mg/kg/injection, schedule: Q01DX009 (ip), vehicle: water 111 % of control | endpoint: mean survival time, dose: 200.0 mg/kg/injection, schedule: Q04DX003 (ip), vehicle: water 110 % of control and 112 % of control | endpoint: mean survival time, dose: 400.0 mg/kg/injection, schedule: Q04DX003 (ip), vehicle: water 102 % of control

CC1CC(=O)Nc2ccccc2N1 (stereo unspecified)
inactive: [7] 97 % of control | [9] 100 % of control | [11] 103 % of control

CCc1ccc(N=Nc2ccc(-c3ccc(NC(C)=O)cc3)cc2)cc1
inactive: endpoint: mean survival time, dose: 100.0 mg/kg/injection, schedule: Q01DX001 (ip), vehicle: carboxymethylcellulose (CMC) 94 % of control | endpoint: mean survival time, dose: 200.0 mg/kg/injection, schedule: Q01DX001 (ip), vehicle: carboxymethylcellulose (CMC) 102 % of control | endpoint: mean survival time, dose: 400.0 mg/kg/injection, schedule: Q01DX001 (ip), vehicle: carboxymethylcellulose (CMC) 105 % of control

CCCCCCCCCCCC(=O)Nc1cc(Cl)c(OC)cc1OC
inactive: [6] 95 % of control | [8] 92 % of control | [10] 93 % of control

CN(C)c1ccc(/C=C\C(=O)c2ccccc2)cc1
inactive: [1] 96 % of control | [5] 94 % of control | [2] 102 % of control | [6] 95 % of control | [12] 102 % of control | [7] 94 % of control | [3] 111 % of control | [8] 95 % of control | [13] 97 % of control | [9] 93 % of control | [4] 94 % of control | [10] 97 % of control | [11] 94 % of control

CC(Br)C(=O)OCc1ccccc1 (stereo unspecified)
inactive: [12] 91 % of control | [13] 91 % of control | [14] 93 % of control
